Marks after values point to notes of the source that are not given here.
Assays:
Assay type in all cases: cell-based, human
[1] = test system: MV4-11 (ITD mutation) cells; assay: growth inhibition by siRNA3 in combination with kinase inhibitor AG1295, WST-1 (Example 4); conditions: Homo sapiens, MV4-11, kinase inhibitor alone (control siRNA), 72 hours, n=6 mean, read-out: growth inhibition as compared with the cells transfected with the control siRNA/0 μM AG1295
Method: The growth inhibitory activity of treatment with a combination of the composition (synthesized siRNA3) of the present invention and a kinase inhibitor on MV4-11 (ITD mutation) cells was examined. The synthesized siRNA3 used was the same as in item (1) of Example 1 above. As the kinase inhibitor, AG1295 (manufactured by CALBIOCHEM) having high specificity to ITD mutation cells was used.
In the same manner as in item (2) of Example 1 above, MV4-11 cells were cultured at 37° C. for 24 hours in a medium obtained by supplementing 10% by volume fetal bovine serum (FBS) to an RPMI 1640 medium (manufactured by TAKARA BIO INC.) (referred to hereinafter as a culture medium) in the presence of 5% by volume CO2. Then, the MV4-11 cells (1×10^6 cells/ml) suspended in Opti-MEM (trade name, manufactured by Invitrogen) were transferred to a cuvette (manufactured by BIO RAD; gap of 4 mm), and siRNA3 was added to the cuvette so as to give a final concentration of 1.2 μM. Then, the cuvette was set in Gene Pulser Xcell (trade name, manufactured by BIO RAD) and thereafter pulsed with electric field intensity of 650 V/cm for 25 msec. Then, the suspension of the cells in the cuvette was added to, and suspended in, a 4-fold excess volume of the culture medium and dispensed onto a 96-well plate so as to give an amount of 100 μl/well. […]
4 mM AG1295 (dissolved in DMSO) was diluted with the above-mentioned culture medium to prepare AG1295 dilutions at a concentration of 10 μM, 6 μM and 0 μM (0.25% by volume DMSO) and added so as to give an amount of 100 μl/well to the 96-well plate prepared in step (2) above and cultured at 37° C. in the presence of 5% by volume CO2. Seventy-two hours after the culture was initiated, the growth activity of the cells was determined using Premix WST-1 reagent (trade name, manufactured by TAKARA BIO INC.) according to a manufacturer's protocol. Each experiment was carried out with n=6, and the mean was determined. The relative growth ratio (%) to the growth ability of the cells transfected with the control siRNA/0 μM AG1295 was determined. […]

Flt3 mRNA = Flt3 mRNA interference by synthesized siRNA, real-time RT-PCR (Example 1); conditions: for inhibition percentage (%) of the relative mRNA expression level (Flt3 mRNA/GAPDH mRNA): siRNA 200 pmol, Oligofectamin, after 24 hours, vs cells transfected without siRNA
Method: Each kind of cell selected from HL-60 cells [Flt3 WT (wild-type) low expressing cells; ATCC CCL-240], EoL-1 cells [Flt3 WT (wild-type) highly expressing cells; ECACC 94042252] and MV4-11 cells [Flt3/ITD highly expressing cells; ATCC CRL-9591] was cultured at 37° C. in an RPMI 1640 medium (manufactured by TAKARA BIO INC.) supplemented with 10% by volume fetal bovine serum (FBS) in the presence of 5% by volume CO2.
Then, the cells (2×10^5 cells/nil) were pre-cultured for 24 hours in a 6-well plate, then recovered, and suspended so as to give a density of 1.5×10^5 cells/ml in Opti-MEM (trade name, manufactured by Invitrogen), and the synthesized siRNA was added to the resulting suspension so as to give a final concentration of 200 pmol. Transfection was carried out using Oligofectamin (trade name, manufactured by Invitrogen) in an amount of 4 μl/reaction, according to an Invitrogen's protocol attached to Oligofectamin (trade name). As a control, the cells were subjected to similar operations without adding the siRNA. The unspecific influence of the siRNA was evaluated using an siRNA to a BCR/ABL chimera mRNA.
Confirmation of RNA interference of the target gene was carried out by determining change in mRNA level by a real-time RT-PCR method as shown below.
Using Oligofectamin (trade name, manufactured by Invitrogen), each kind of cell was transfected with the synthesized siRNA. After 24 hours, whole RNA was extracted from the resulting cells with TRIzol™ reagent (manufactured by Invitrogen), and the resulting product was treated with DNaseI (manufactured by TAKARA BIO INC.). The transfection, the extraction of the whole RNA and the treatment with DNaseI were carried out according to a manufacturer's protocol of the reagent used.
The real-time PCR method was carried out using a Real Time One Step RNA PCR Kit (trade name, manufactured by TAKARA BIO INC.), 100 ng of the resulting RNA as a template and a pair of primers (each 20 pmol), that is, an oligonucleotide having the nucleotide sequence of SEQ ID NO: 13 and an oligonucleotide having the nucleotide sequence of SEQ ID NO: 14. In the real-time RT-PCR method, change in fluorescence based on SYBER Green I (manufactured by TAKARA BIO INC.) was determined with Light Cycler (trade name, manufactured by Roche). The RNA level was standardized by similarly determining GAPDH mRNA with primers set forth in SEQ ID NOs: 15 and 16.
The PCR conditions were as follows: after incubation was carried out at 95° C. for 30 seconds, the reaction was carried out in 40 cycles each consisting of the reaction at 95° C. for 1 second, then at 60° C. for 10 seconds, and at 72° C. for 30 seconds.
The inhibition percentage (%) of the relative mRNA expression level (Flt3 mRNA/GAPDH mRNA) changed by using the synthesized siRNA, as calculated assuming that the relative mRNA expression level (Flt3 mRNA/GAPDH mRNA) of the cells only subjected to each operation of the transfection without adding the synthesized siRNA was 100%, was shown in Table 1.

[2] = test system: EoL1 cells (WT-highly expressing); assay: cell growth activity, Premix WST1 (Example 2); conditions: for Relative growth ability (%) compared with the control: siRNA 10 nM, after 20 hours, n=3 mean, control = transfection without siRNA
Method: (§1) The cells placed in a 96-well plate at a density of 2×10^4 cells/well were cultured in an RPMI medium (containing 10% by volume FBS). The cells were transfected with each of the synthesized (10 nM each) siRNAs, and after 20 hours, the cell growth activity was determined with Premix WST1 reagent (trade name, manufactured by TAKARA BIO INC.). Relative growth ability (%) compared with the growth ability of the control (cells subjected to transfection without adding an siRNA) was determined. Each experiment was carried out with n=3, and the mean was determined.

[3] = test system: HL60 cells (WT-low expressing); assay: cell growth activity, Premix WST1 (Example 2); conditions: for Ratio of cell-growth activation defining RNA interference effect in HL60 as 1: HL60, the reference itself; for Relative growth ability (%) compared with the control: HL60, siRNA 10 nM, after 20 hours, n=3 mean, control = transfection without siRNA
Method: as §1

[4] = test system: MV4-11 cells (ITD mutation-highly expressing); assay: cell growth activity, Premix WST1 (Example 2); conditions: for Relative growth ability (%) compared with the control: siRNA 10 nM, after 20 hours, n=3 mean, control = transfection without siRNA
Method: as §1

[5] = EoL1 (WT-highly expressing), the reference itself
[6] = MV4-11 (ITD mutation-highly expressing)

Row | Molecule | inhibition at 3 µM ([1]; 3.0 μM) [%] | inhibition at 5 µM ([1]; 5.0 μM) [%] | Relative ratio of inhibition defining RNA interference effect in EoL1 as 1 (Flt3 mRNA; [5]) | inhibition percentage (%) of the relative mRNA expression level (Flt3 mRNA/GAPDH mRNA) (Flt3 mRNA; EoL1 (WT-highly expressing)) [%] | inhibition percentage (%) of the relative mRNA expression level (Flt3 mRNA/GAPDH mRNA) (Flt3 mRNA; HL60 (WT-low expressing)) [%] | Relative ratio of inhibition defining RNA interference effect in EoL1 as 1 (Flt3 mRNA; [6]) | inhibition percentage (%) of the relative mRNA expression level (Flt3 mRNA/GAPDH mRNA) (Flt3 mRNA; [6]) [%] | selective inhibition of Flt3 mRNA expression relative to the inhibition ratio in the cells without ITD mutation (WT) (Flt3 mRNA; cells having ITD mutation vs WT cells) [fold] | Ratio of cell-growth activation defining RNA interference effect in HL60 as 1 [2] | Relative growth ability (%) compared with the control [2] [%] | Ratio of cell-growth activation defining RNA interference effect in HL60 as 1 [3] | Relative growth ability (%) compared with the control [3] [%] | Ratio of cell-growth activation defining RNA interference effect in HL60 as 1 [4] | Relative growth ability (%) compared with the control [4] [%] | inhibition of Flt3 mRNA expression relative to the cells without using an siRNA (Flt3 mRNA; all cells (MV4-11, EoL1, HL60)) | inhibition of Flt3 mRNA expression (in words) (Flt3 mRNA; siRNA irrelevant to Flt3 mRNA, sequence specificity)
1 | Cc1cc2ncc(-c3ccccc3)nc2cc1C [AG1295] | 59.8 | 84.3 | – | – | – | – | – | – | – | – | – | – | – | – | – | –
2 | siRNA1: siRNA to ATP-binding site region of Flt3 (target SEQ ID NO: 1); sense SEQ ID NO: 2, antisense SEQ ID NO: 3 (sense GGUACUAGGAUCAGGUGCUTT; antisense AGCACCUGAUCCUAGUACCTT; chemistry not given here) | – | – | (1)* | 41 | 31 | (1.6) | 65 | ≥ 1.6 | (0.60) | 68.5 | (1)* | 116 | (0.49) | 56.4 | – | –
3 | siRNA2: siRNA to TK (kinase) region of Flt3 (target SEQ ID NO: 4); sense SEQ ID NO: 5, antisense SEQ ID NO: 6 (sense CAGGAGUCUCAAUCCAGGUTT; antisense ACCUGGAUUGAGACUCCUGTT; chemistry not given here) | – | – | (1) | 54 | 46 | (1) | 54 | – | (0.70) | 79.7 | (1) | 115 | (0.36) | 41.4 | around 50% | –
4 | siRNA4: siRNA to BCR/ABL chimera mRNA (target SEQ ID NO: 10); sense SEQ ID NO: 11, antisense SEQ ID NO: 12; unspecific control (sense GCAGAGUUCAAAAGCCCUUTT; antisense AAGGGCUUUUGAACUCUGCTT; chemistry not given here) [reference compound] | – | – | – | 8 | 7 | – | 5 | – | – | – | – | – | – | – | – | did not occur
